According to US4686207A (Abbott Laboratories, priority 1985, dated 1987):
Counter-ions that a name gives are not always drawn.

Tests used:
Staph. aureus 10649 [1] = assay: Chronic abscess model, in vivo efficacy vs. Staph. aureus 10649; set-up: species or system Staph. aureus (infected mouse); details: mice pretreated with milk
Description: Thus, the improved oral activity of the compounds of formula I can be attributed to improved gastrointestinal absorption of these compounds. […] In this model, sustained blood levels of antibiotic will prevent reinfection by the organism at the abscess site after the last treatment.

Staph. aureus 10649 [2] = assay: Acute mouse protection, in vivo efficacy vs. Staph. aureus 10649 (100-1000 LD50 s); set-up: species or system Staph. aureus (infected mouse); details: for ED50 Oral (milk) / ED50 Subcutaneous / ED50: Acute Mouse Protection
Description: In Vivo Efficacy vs. Staph. aureus 10649
Model Number Subcutaneous
Thus, the improved oral activity of the compounds of formula I can be attributed to improved gastrointestinal absorption of these compounds.

[3] = in man; cited from earlier work
[4] = in vivo; cited from earlier work
[5] = pH 4; cited from earlier work
Acid stability = format: physicochemical; details: compared with erythromycin A
[6] = Serum blood levels after oral administration to beagle dogs (FIG. 1); format: in vivo, beagle dog; details: 10.0 mg/kg, solution of a buffered salt in water, three beagle dogs, 24 hours
Method: The serum half-lives of the new compounds have been measured in both rats and dogs (t0.5 =2-3 hours in rats, 8-12 hours in dogs). […] Similarly, erythromycin A was administered to other dogs at an equal dosage. Serum concentrations of the administered drug were determined hourly over the 24 hours following administration. The results are depicted in FIG. 1.

[7] = system: gastrointestinal tissues (stomach, duodenum, jejunum and ileum); assay: Gastrointestinal stimulating activity in a dog model, overall; details: 2 mg/kg intravenously
Method: Contractions in the gut were recorded with surgically implanted strain gauges.

[8] = oral, mice pretreated with milk
[9] = Staphylococcus aureus, 10649, po, oral, mice pretreated with milk, read-out: ED50 Oral (milk)
[10] = Staphylococcus aureus, 10649, sc, subcutaneous, read-out: ED50 Subcutaneous

4"-N,N-dimethylglycylerythromycin A 11,12-carbonate 6,9-hemiacetal monohydrochloride salt [Example 7]
ED50 Oral (milk) (Staph. aureus 10649 [1]): 36 mg/kg

4"-N-CBZ-sarcosyl erythryomycin A 11,12-carbonate-6,9-hemiacetal [Example 6]
ED50 Oral (milk) (Staph. aureus 10649 [2]; [8]): 34 mg/kg
ED50 Subcutaneous (Staph. aureus 10649 [2]; subcutaneous): 35 mg/kg

CC[C@H]1OC(=O)[C@H](C)[C@@H](O[C@H]2C[C@@](C)(OC)[C@@H](O)[C@H](C)O2)[C@H](C)[C@@H](O[C@@H]2O[C@H](C)C[C@H](N(C)C)[C@H]2O)[C@](C)(O)C[C@@H](C)C(=O)[C@H](C)[C@@H](O)[C@]1(C)O [Compound 1, erythromycin A]
serum half-life [3]: 2 to 3 h
ED50 (Staph. aureus 10649 [1]; Staphylococcus aureus, 10649, oral): 200 mg/kg
ED50 Oral (milk) (Staph. aureus 10649 [2]; [8]): 52 mg/kg
ED50 Subcutaneous (Staph. aureus 10649 [2]; subcutaneous): 9 mg/kg
ED50 (Staph. aureus 10649 [2]; [9]): 81 mg/kg
ED50 (Staph. aureus 10649 [2]; [10]): 6 mg/kg
oral absorption [4]: unreliably absorbed when administered orally
antibacterial activity in an environment of high acidity [5]: rapidly loses its antibacterial activity

CC[C@H]1OC(=O)[C@H](C)[C@@H](O[C@H]2C[C@@](C)(OC)[C@@H](O)[C@H](C)O2)[C@H](C)[C@@H](O[C@@H]2O[C@H](C)C[C@H](N(C)C)[C@H]2O)[C@@]2(C)C[C@@H](C)C(O)(O2)[C@H](C)[C@H]2OC(=O)O[C@@]21C [Compound 2, erythromycin A 11,12-carbonate-6,9-hemiacetal]
ED50 (Staph. aureus 10649 [2]; [9]): 69 mg/kg
ED50 (Staph. aureus 10649 [2]; [10]): 15 mg/kg
subcutaneous versus oral activity (Staph. aureus 10649 [2]; Table I, milk-pretreated mice): more active subcutaneously than orally
acid stability relative to erythromycin A (Acid stability): significantly more acid-stable than erythromycin A

CC[C@H]1OC(=O)[C@H](C)[C@@H](O[C@H]2C[C@@](C)(OC)[C@@H](OC(C)=O)[C@H](C)O2)[C@H](C)[C@@H](O[C@@H]2O[C@H](C)C[C@H](N(C)C)[C@H]2O)[C@](C)(O)C[C@@H](C)C(=O)[C@H](C)[C@@H](O)[C@]1(C)O [Compound 3, 4"-acetylerythromycin A]
ED50 (Staph. aureus 10649 [2]; [9]): 100 mg/kg
ED50 (Staph. aureus 10649 [2]; [10]): 30 mg/kg

CC[C@H]1OC(=O)[C@H](C)[C@@H](O[C@H]2C[C@@](C)(OC)[C@@H](OC(C)=O)[C@H](C)O2)[C@H](C)[C@@H](O[C@@H]2O[C@H](C)C[C@H](N(C)C)[C@H]2O)[C@@]2(C)C[C@@H](C)C(O)(O2)[C@H](C)[C@H]2OC(=O)O[C@@]21C [Compound 4, 4"-acetylerythromycin A 11,12-carbonate-6,9-hemiketal HCl salt]
ED50 (Staph. aureus 10649 [2]; [9]): 40 mg/kg
ED50 (Staph. aureus 10649 [2]; [10]): 27 mg/kg

CC[C@H]1OC(=O)[C@H](C)[C@@H](O[C@H]2C[C@@](C)(OC)[C@@H](OC(C)=O)[C@H](C)O2)[C@H](C)[C@@H](O[C@@H]2O[C@H](C)C[C@H](N(C)C)[C@H]2O)[C@@]2(C)C[C@@H](C)C(O)(O2)[C@H](C)[C@H]2OC(=O)O[C@@]21C [Compound 7, 4"-acetylerythromycin A 11,12-carbonate-6,9-hemiacetal free base]
half life relative to erythromycin A [6]: markedly longer half life
peak blood level relative to erythromycin A [6]: higher peak blood level

CC[C@H]1OC(=O)[C@H](C)[C@@H](O[C@H]2C[C@@](C)(OC)[C@@H](O)[C@H](C)O2)[C@H](C)[C@@H](O[C@@H]2O[C@H](C)C[C@H](N(C)C)[C@H]2O)[C@](C)(O)C[C@@H](C)C(=O)[C@H](C)[C@@H](O)[C@]1(C)O [erythromycin A lactobionate]
stimulation of the stomach, duodenum, jejunum and ileum [7]: pronounced stimulation
